Results from ChEMBL document CHEMBL5393443, “Novel inhibitors of insulin-like growth factor 2 mrna binding proteins” (2022).

Each compound was assayed on ES-2 (assay: Cytotoxicity against human ES2 cells after 72 hrs by InuCyte live cell imaging analysis). Details: ES-2, 72 h.
Assay type: functional, cell-based

| SMILES | EC50 [nM] |
| --- | --- |
| NC(=O)c1c(NC(=O)c2ccc(Cl)s2)sc2c1CCC2 | 6270 |
| CCc1cc(C(=O)Nc2sccc2C(N)=O)cs1 | 2950 |
| Cc1ccc(C(=O)Nc2sc(Cc3ccccc3)cc2C(N)=O)o1 | 1340 |
| NC(=O)c1cc(Cc2ccccc2)sc1NC(=O)COc1ccccc1 | 2420 |
| COc1ccc(C(=O)Nc2sc(Cc3ccccc3)cc2C(N)=O)cc1COc1c(Cl)cccc1Cl | 2600 |
| CCc1cc(C(=O)Nc2sc(Cc3ccccc3)cc2C(N)=O)cs1 | 1900 |
| COc1ccc(OCc2cc(-c3nc4sc(Cc5ccccc5)cc4c(=O)[nH]3)ccc2OC)cc1 | 1120 |
| NC(=O)c1ccsc1NC(=O)c1cccs1 | 3230 |
| NC(=O)c1ccccc1NC(=O)c1ccc(Cl)s1 | 2300 |
| NC(=O)c1ccccc1NC(=O)c1ccc(Cl)c(Cl)c1 | 1880 |
| NC(=O)c1cc(Cc2ccccc2)sc1NC(=O)c1ccc(Cl)s1 | 1660 |
| NC(=O)c1cc(Cc2ccccc2)sc1NC(=O)CN1CCN(Cc2ccccc2Cl)CC1 | 7110 |
| NC(=O)c1ccccc1NC(=O)CN1CCN(Cc2ccc(Cl)cc2Cl)CC1 | 993 |
| NC(=O)c1ccccc1NC(=O)CN1CCN(Cc2ccc(F)cc2Cl)CC1 | 3170 |
| COc1ccc(C(=O)Nc2sccc2C(N)=O)cc1COc1ccccc1Cl | 1660 |
| COc1ccc(C(=O)Nc2sc(Cc3ccccc3)cc2C(N)=O)cc1COc1cccc(Cl)c1 | 355 |
| NC(=O)c1ccccc1NC(=O)c1cccc(COc2cccc(Cl)c2)c1 | 675 |
| NC(=O)c1ccccc1OCC(=O)c1ccc(Br)cc1 | 2950 |
| NC(=O)c1cc(Cc2ccccc2)sc1NC(=O)c1ccc(COc2ccc(Br)cc2)cc1 | 1190 |

| SMILES | EC50 [nM] |
| --- | --- |
| NC(=O)c1c(NC(=O)c2ccc(Cl)s2)sc2c1CCCC2 | 1470 |
| COc1ccc(C(=O)Nc2ccccc2C(N)=O)cc1Cl | 5840 |
| CC(C)c1cc(C(N)=O)c(NC(=O)Cc2ccc(Cl)c(Cl)c2)s1 | 2450 |
| NC(=O)c1cc(Cc2ccccc2)sc1NC(=O)Cc1cccs1 | 1160 |
| COc1cc(/C=C/C(=O)Nc2ccccc2C(N)=O)ccc1OCc1ccccc1 | 1880 |
| O=c1[nH]c(-c2ccc(OCc3ccccc3F)cc2)nc2ccccc12 | 250 |
| NC(=O)c1ccccc1OCc1ccc(Cl)s1 | 5610 |
| NC(=O)c1ccccc1NC(=O)CN1CCN(Cc2ccc(Cl)c(Cl)c2)CC1 | 1220 |
| NC(=O)c1cc(Cc2ccccc2)sc1NC(=O)CN1CCN(Cc2ccc(Cl)c(Cl)c2)CC1 | 4090 |
| COc1ccc(C(=O)Nc2sc(Cc3ccccc3)cc2C(N)=O)cc1COc1ccc(Cl)cc1 | 1020 |
| NC(=O)c1ccccc1NC(=O)CN1CCN(Cc2c(Cl)cccc2Cl)CC1 | 6460 |
| COc1ccc(C(=O)Nc2sc(Cc3ccccc3)cc2C(N)=O)cc1COc1ccccc1Cl | 439 |
| NC(=O)c1ccccc1NC(=O)c1ccccc1 | 10500 |
| NC(=O)c1ccccc1NC(=O)c1cc(Cl)cc(Cl)c1 | 5140 |
| NC(=O)c1cc(Cl)ccc1OCC(=O)c1ccc(Cl)s1 | 1330 |
| NC(=O)c1cc(Cc2ccccc2)sc1NC(=O)c1cccc(COc2ccc(Cl)cc2Cl)c1 | 47 |
| NC(=O)c1ccccc1NC(=O)CN1CCN(Cc2ccc(Cl)cc2)CC1 | 2990 |
| CCc1c(C(=O)Nc2sc(Cc3ccccc3)cc2C(N)=O)csc1C | 5060 |
| COc1ccc(C(=O)Nc2sc(Cc3ccccc3)cc2C(N)=O)cc1OCc1ccccc1Cl | 1100 |

| SMILES | EC50 [nM] |
| --- | --- |
| Cc1cc2c(O)nc(Cc3ccccc3)nc2s1 | 4840 |
| NC(=O)c1cc(Cc2ccccc2)sc1NC(=O)CCc1ccccc1 | 6210 |
| COc1cc(-c2nc3ccccc3c(=O)[nH]2)ccc1OCc1ccccc1[N+](=O)[O-] | 476 |
| CNC(=O)c1ccccc1NC(=O)c1cc(C)c(C)s1 | 2830 |
| COc1ccc(C(=O)Nc2sc(C(C)C)cc2C(N)=O)cc1COc1ccc(Br)cc1 | 8340 |
| NC(=O)c1ccsc1NC(=O)CN1CCN(Cc2ccc(Cl)c(Cl)c2)CC1 | 781 |
| COc1ccc(C(=O)Nc2sc(Cc3ccccc3)cc2C(N)=O)cc1COc1ccc(Cl)cc1Cl | 293 |
| Cc1ccc(C(=O)Nc2ccccc2C(N)=O)s1 | 2060 |
| COc1ccc(C(=O)Nc2sc(Cc3ccccc3)cc2C(N)=O)cc1 | 1940 |
| NC(=O)c1cc(Cc2ccccc2)sc1NC(=O)c1ccccc1 | 2270 |
| NC(=O)c1cc(Cc2ccccc2)sc1NC(=O)c1cccs1 | 671 |
| COc1ccc(C(=O)Nc2sc(C(C)C)cc2C(N)=O)cc1COc1ccccc1Cl | 2230 |
| NC(=O)c1cc(Cc2ccccc2)sc1NC(=O)c1ccc2c(c1)OCO2 | 1300 |
| NC(=O)c1cc(Cc2ccccc2)sc1NC(=O)c1ccc(COc2ccc(Cl)cc2Cl)s1 | 560 |
| CC(Sc1nnc(NC(=O)c2ccccc2)s1)c1nc2ccccc2c(=O)[nH]1 (configuration not stated) | 4050 |
| NC(=O)c1ccccc1NC(=O)CN1CCN(Cc2ccccc2Cl)CC1 | 9580 |
| COc1ccc(C(=O)Nc2ccccc2C(N)=O)cc1COc1ccccc1Cl | 1100 |
| NC(=O)c1ccccc1NC(=O)C1CCN(C(=O)c2cccs2)CC1 | 5180 |
| COc1ccc(C(=O)Nc2sc(Cc3ccccc3)cc2C(N)=O)cc1COc1cccc(Cl)c1Cl | 401 |
